Results as given in US11033569B2, “Compounds,Compositions, and methods for the treatment of disease” (Sperovie Biosciences, Inc., priority 2016, dated 2021).

How the values were obtained:
human monocytes = assay: Activity in human monocytes; type: cell-based; conditions: human monocytes (FIG. 36A)
[1] = test system: panel of normal cell lines; assay: Cytotoxicity in a panel of normal cell lines; type: cell-based
[2] = test system: mouse A20 B cell lymphoma tumor cells; assay: Inhibition of mouse A20 B cell lymphoma tumor cells; conditions: FIGS. 48A-48D
[3] = test system: human natural killer (NK) cells; assay: Human natural killer (NK) cell activation; type: cell-based
NF-κβ-luc reporter = NF-κβ-luc reporter activation in HEK293 (SZ14) cells, screen for STING agonists; type: cell-based; conditions: digitonin buffer, 5 hours, read-out: NF-KB EC50
Procedure: (§1) ISG54 or NF-κβ activity was determined using the Steady-glo buffer system (Promega), and are expressed as EC50 values summarized in Table 3 below. […] This calculation is applicable for compounds with enzyme inhibition activity, as the baseline for an untreated sample may be set at 100% enzymatic activity, and therefore % inhibition is evaluated based on this 100% maximal basis. For these studies, the EC50 value relates to the concentration required to achieve a value 50% activity level above the untreated sample set at 0%.
(§2) Data are shown as fold induction over cells that received DMSO (compound carrier) alone as the mean, +/−standard deviation of duplicate wells per stimulant.

[4] = Immunohistochemistry on tissues from treated mice; type: in vivo
CT26 colon cancer = assay: Syngeneic CT26 colon cancer mouse model; type: in vivo
STING = target: T1, STING (Homo sapiens, UniProt Q86WV6); assay: Gel shift assay; type: binding; conditions: gel shift with fluorescent close structural analog of Cmd 1
T1 construct: host or cells: SZ14 HEK293 cells stably expressing ISG54 ISRE-luc reporter

ISG54 ISRE-luc reporter = ISG54 ISRE-luc reporter activation in HEK293 (SZ14) cells, screen for STING agonists; type: cell-based; conditions: digitonin buffer, 5 hours, read-out: IRF EC50
Procedure: as §1, §2

Tumor cells = assay: Tumor cell growth inhibition (DAPI imaging, ImageXpress); type: cell-based; conditions: once daily for 3 days, no lipofectamine
Procedure: Tumor cells in 96-well plate were treated once daily with Cmd 1 (no lipofectamine) or recombinant IFN (U-IFN) for 3 days. Cells were fixed with 1% paraformaldehyde and stained with DAPI. Cells were automatically imaged on ImageXpress and total number of survival cells were analyzed using MetaXpress software. Results are shown as total number of cells per group or % reduction calculated by normalizing to DMSO treated cells.

T1 sequence (Q86WV6 whole entry): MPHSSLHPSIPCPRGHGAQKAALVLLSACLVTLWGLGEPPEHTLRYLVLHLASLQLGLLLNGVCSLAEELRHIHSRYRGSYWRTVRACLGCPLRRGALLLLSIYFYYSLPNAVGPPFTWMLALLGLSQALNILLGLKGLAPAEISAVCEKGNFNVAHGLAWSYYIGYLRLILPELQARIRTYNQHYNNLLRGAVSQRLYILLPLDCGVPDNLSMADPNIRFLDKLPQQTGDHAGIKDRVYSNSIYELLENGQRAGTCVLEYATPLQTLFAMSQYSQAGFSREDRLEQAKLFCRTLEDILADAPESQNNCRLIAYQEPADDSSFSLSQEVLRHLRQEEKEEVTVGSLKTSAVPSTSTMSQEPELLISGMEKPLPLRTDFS

## CCCCCCCCCCOc1ccc(C(=O)Oc2ccc(CSP3(=O)OC[C@H]4O[C@@H](n5cnc6c(N)ncnc65)[C@H](F)[C@@H]4OP(=O)(O)OC[C@H]4O[C@@H](n5ccc(=O)[nH]c5=O)[C@H](F)[C@@H]4O3)cc2)cc1.N (some centres unmarked) [Cmd 1]
Human monocytes
  activity relative to natural STING ligand 3′,3′-cGAMP: more active
[1]
  cytotoxicity: non-cytotoxic
[2]
  inhibition of tumor cells: inhibits mouse A20 B cell lymphoma tumor cells
[3]
  NK cell activation: activates human natural killer (NK) cells
[3]; human NK cells
  IFN-γ production: induces IFN-γ production
NF-κβ-luc reporter
  EC50: 50 to 500 nM
[4]
  correlation of anti-tumor activity with immune response: correlates with the induction of the innate and adaptive immune response
CT26 colon cancer; administered intratumorally, 13 days post initiation treatment, vs vehicle
  abscopal antitumoral activity, tumor volume left and right flank: considerable tumor growth inhibition
CT26 colon cancer; combination therapy with an anti-CTLA4 antibody
  survival rate: significantly improve the survival rate
CT26 colon cancer; doses 10 μg, 30 μg, and 100 μg, vs vehicle
  tumor growth: considerable tumor growth inhibition at all three doses
CT26 colon cancer; intratumoral administration, vs vehicle (FIG. 79)
  tumor growth: considerable tumor growth inhibition
CT26 colon cancer; intratumoral administration, vs vehicle, vehicle and Ethanol (FIG. 80)
  tumor growth: considerable tumor growth inhibition
CT26 colon cancer; monotherapy
  survival rate: significantly improve the survival rate
CT26 colon cancer; syngeneic CT26 colon cancer model (FIG. 62)
  tumor growth: highly effective in inhibiting tumor growth
STING
  binding to STING: binds to STING
ISG54 ISRE-luc reporter
  EC50: < 50 nM
Tumor cells
  tumor cell growth: Inhibits Tumor Cell Growth
